According to patent US20200390100A1, “SUBSTITUTED N-HETEROCYCLYL- AND N-HETEROARYL-TETRAHYDROPYRIMIDINONES AND THE SALTS THEREOF, AND THE USE OF SAME AS HERBICIDAL ACTIVE SUBSTANCES” (Bayer Aktiengesellschaft, priority 2017, published 2020):

Key:
Setaria viridis [1] = test: Herbicidal pre-emergence action (Part 2), 1280 g/ha; type: in vivo; settings: application rate 1280 g/ha, scored visually after about 3 weeks, Table D4
In short: (§1)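 Pre-emergence test: monocot and dicot weed seeds were sown in sandy loam, and the soil surface was sprayed with WP or EC formulations at 1280 g/ha (600 L/ha water, 0.5% additive). After about 3 weeks in the greenhouse, damage was visually scored as percent versus untreated controls (100% = dead).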

Matricaria inodora [2] = test: as above; type: in vivo; settings: application rate 1280 g/ha, scored visually after about 3 weeks, Table D7
In short: as §1

Stellaria media [3] = test: as above; type: in vivo; settings: application rate 1280 g/ha, scored visually after about 3 weeks, Table D8
In short: as §1

Abutilon theophrasti [4] = test: as above; type: in vivo; settings: application rate 1280 g/ha, scored visually after about 3 weeks, Table D5
In short: as §1

Amaranthus retroflexus [5] = test: as above; type: in vivo; settings: application rate 1280 g/ha, scored visually after about 3 weeks, Table D6
In short: as §1

Poa annua [6] = test: as above; type: in vivo; settings: application rate 1280 g/ha, scored visually after about 3 weeks, Table D3
In short: as §1

Setaria viridis [7] = test: Herbicidal post-emergence action (Part 2), 1280 g/ha; type: in vivo; settings: application rate 1280 g/ha, rated visually after about 3 weeks, Table C3
In short: (§2)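 Greenhouse-grown weeds in sandy loam treated post-emergence at the one-leaf stage (2-3 weeks after sowing) with WP or EC formulations plus 0.5% additive at 600 L/ha water. Visual activity rated about 3 weeks later versus untreated controls, 0% (like control) to 100% (dead).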

Echinochloa crus-galli [8] = test: as above; type: in vivo; settings: post-emergence (Part 2), application rate 1280 g/ha, rated visually after about 3 weeks vs untreated controls
In short: as §2

Matricaria inodora [9] = test: as above; type: in vivo; settings: application rate 1280 g/ha, rated visually after about 3 weeks, Table C6
In short: as §2

Stellaria media [10] = test: as above; type: in vivo; settings: application rate 1280 g/ha, rated visually after about 3 weeks, Table C7
In short: as §2

Abutilon theophrasti [11] = test: as above; type: in vivo; settings: application rate 1280 g/ha, rated visually after about 3 weeks, Table C4
In short: as §2

Amaranthus retroflexus [12] = test: as above; type: in vivo; settings: application rate 1280 g/ha, rated visually after about 3 weeks, Table C5
In short: as §2

Poa annua [13] = test: as above; type: in vivo; settings: application rate 1280 g/ha, rated visually after about 3 weeks, Table C2
In short: as §2

photosystem II (PS II) = target: T1, photosystem II (PS II) (Spinacia oleracea, UniProt P69560); test: Measurement of PS II activity in thylakoid membranes (DCPIP reduction); type: biochemical, spinach; settings: PS II activity in spinach thylakoid membranes, Table E1; read-out: Effect
T1 construct: the chloroplasts were osmotically ruptured and the thylakoid membranes were then obtained by centrifugation; from tissue; host or cells: fresh spinach leaves; thylakoid membrane preparation from isolated chloroplasts
Procedure: Cooled fresh spinach leaves were comminuted and homogenized in 50 mM phosphate buffer, pH 6.8. 10 mM KCl, 0.34 M sucrose (sucrose buffer) (blender, 1 g of plant material/ml). The homogenate was subsequently filtered through 4 layers of Miracloth and the chloroplasts were isolated by centrifugation, i.e. 10 min of centrifugation at 4400×g (4° C.). The sediment was suspended in 25 ml of sucrose buffer and re-centrifuged for 10 min at 4400×g (4° C.). The sediment was then suspended in 40 ml of 50 mM phosphate buffer, pH 6.8, 10 mM KCl, without sucrose. In this step, the chloroplasts were osmotically ruptured and the thylakoid membranes were then obtained by centrifugation (10 min, 4400×g, 4° C.). The membrane sediment was finally suspended in about 20 ml of 50 mM phosphate buffer, pH 6.8, 10 mM KCl. Following protein determination and activity determination, the membrane suspension was divided into aliquots and frozen in liquid nitrogen. The aliquots were stored at −80° C. Under these conditions, the photosystem II preparation was storage stable for at least three months. The activity determination of photosystem II (PS II) was then carried out using the following test principle: The electron transfer from PS II to an artificial electron acceptor, 2,6-dichlorophenolindophenol (DCPIP), was measured with exposure to light. The concentration of the blue oxidized form of DCPIP was determined spectrophotometrically at wavelength λ=595 nm. […] The activity determination is carried out in microtiter plates (96 cavities) in a reaction volume of 200 μl. Here, 155 μl of dilute membrane suspension were initially charged in 50 mM of phosphate buffer, pH 6.8, 10 mM KCl. Depending on the activity of the PS II preparation, the dilution was adjusted such that the measurement of the decrease in absorption (λ=595 nm) was linear for at least 10 min. In each case 5 μl solutions of the test compounds of a concentration of 100 μM in DMSO were added to the enzyme suspension; controls contained 5 μl of DMSO; the final concentration of DMSO in the reaction batch was thus 2.5% (v/v); this concentration had no adverse effect on the enzymatic activity. On each microtiter plate, a known PS II inhibitor, for example metribuzin, was used as standard, which allowed the quality of the PS II test to be assessed. The reaction was started by addition of 40 μl DCPIP solution (600 μM in distilled water); the final concentration of DCPIP was 120 μM. Measurement of absorption is carried out over a period of 10 min at 22° C. and with exposure to light. Using metribuzin as comparative substance, the results for the efficacy of the compounds of the general formula (I) at 100 μM are stated in the table below using the following classification: ++++(inhibition≥90%), +++(90%>inhibition≥70%), ++(70%>inhibition≥50%), +(50%>inhibition≥30%).

Setaria viridis [14] = test: Post-emergence herbicidal action, greenhouse, 320 g/ha; type: in vivo; settings: application rate 320 g/ha, rated visually after about 3 weeks vs untreated controls
In short: (§3)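 Plants treated post-emergence at the one-leaf stage, 2 to 3 weeks after sowing in sandy loam, with WP or EC formulations plus 0.5% additive at 320 g/ha. Visual rating about 3 weeks later versus untreated controls (100% = dead, 0% = like control).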

Matricaria inodora [15] = test: as above; type: in vivo; settings: application rate 320 g/ha, rated visually after about 3 weeks vs untreated controls
In short: as §3

Stellaria media [16] = test: as above; type: in vivo; settings: application rate 320 g/ha, rated visually after about 3 weeks vs untreated controls
In short: as §3

Veronica persica [17] = test: as above; type: in vivo; settings: application rate 320 g/ha, rated visually after about 3 weeks vs untreated controls
In short: as §3

Polygonum convolvulus [18] = test: as above; type: in vivo; settings: application rate 320 g/ha, rated visually after about 3 weeks vs untreated controls
In short: as §3

Pharbitis purpurea = test: as above; type: in vivo; settings: application rate 320 g/ha, rated visually after about 3 weeks vs untreated controls
In short: as §3

Abutilon theophrasti [19] = test: as above; type: in vivo; settings: application rate 320 g/ha, rated visually after about 3 weeks vs untreated controls
In short: as §3

Amaranthus retroflexus [20] = test: as above; type: in vivo; settings: application rate 320 g/ha, rated visually after about 3 weeks vs untreated controls
In short: as §3

Digitaria sanguinalis = test: as above; type: in vivo; settings: application rate 320 g/ha, rated visually after about 3 weeks vs untreated controls
In short: as §3

Viola tricolor [21] = test: as above; type: in vivo; settings: application rate 320 g/ha, rated visually after about 3 weeks vs untreated controls
In short: as §3

Setaria viridis [22] = test: Pre-emergence herbicidal action, greenhouse, 320 g/ha; type: in vivo; settings: application rate 320 g/ha, Table B11
In short: (§4)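 Sow seeds in soil-filled pots, cover. Spray compound (WP/EC, aqueous, +0.5% additive) on covering soil. Hold under good growth conditions ~3 wk. Score % effect visually vs untreated.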

Echinochloa crus-galli [23] = test: as above; type: in vivo; settings: application rate 320 g/ha, scored visually after about 3 weeks vs untreated controls
In short: as §4

Alopecurus myosuroides = test: as above; type: in vivo; settings: application rate 320 g/ha, scored visually after about 3 weeks vs untreated controls
In short: as §4

Matricaria inodora [24] = test: as above; type: in vivo; settings: application rate 320 g/ha, scored visually after about 3 weeks vs untreated controls
In short: as §4

Stellaria media [25] = test: as above; type: in vivo; settings: application rate 320 g/ha, scored visually after about 3 weeks vs untreated controls
In short: as §4

Veronica persica [26] = test: as above; type: in vivo; settings: application rate 320 g/ha, Table B13
In short: as §4

Polygonum convolvulus [27] = test: as above; type: in vivo; settings: application rate 320 g/ha, scored visually after about 3 weeks vs untreated controls
In short: as §4

Abutilon theophrasti [28] = test: as above; type: in vivo; settings: application rate 320 g/ha, scored visually after about 3 weeks vs untreated controls
In short: as §4

Amaranthus retroflexus [29] = test: as above; type: in vivo; settings: application rate 320 g/ha, scored visually after about 3 weeks vs untreated controls
In short: as §4

Hordeum murinum = test: as above; type: in vivo; settings: application rate 320 g/ha, Table B14
In short: as §4

Avena fatua = test: as above; type: in vivo; settings: application rate 320 g/ha, scored visually after about 3 weeks vs untreated controls
In short: as §4

Viola tricolor [30] = test: as above; type: in vivo; settings: application rate 320 g/ha, Table B8
In short: as §4

Compound `CN1CCC(O)N(c2cc(C(C)(C)C)n(C)n2)C1=O` (stereo not drawn) [I.1-315] has a Setaria viridis (Setaria viridis [1]) of 100%, a Matricaria inodora (Matricaria inodora [2]) of 100% and a Stellaria media (Stellaria media [3]) of 100%. For the same compound, the Abutilon theophrasti (Abutilon theophrasti [4]) was 100%, the Amaranthus retroflexus (Amaranthus retroflexus [5]) was 100% and the “Poa Annua” value (Poa annua [6]) was 90%. It also gave a Setaria viridis (Setaria viridis [7]) of 100%, an Echinochloa crus-galli (Echinochloa crus-galli [8]) of 100% and a Matricaria inodora (Matricaria inodora [9]) of 90%. For the same compound, the Stellaria media (Stellaria media [10]) was 100%, the Abutilon theophrasti (Abutilon theophrasti [11]) was 100% and the Amaranthus retroflexus (Amaranthus retroflexus [12]) was 100%. For the same compound, the “Poa Annua” value (Poa annua [13]) was 100%.
`CCCC(=O)OC1CCN(C)C(=O)N1c1cc(C(C)(C)C)on1` (stereo not drawn) [I.4-162, 3-(5-tert-Butyl-1,2-oxazol-3-yl)-1-methyl-2-oxohexahydropyrimidin-4-yl Butyrate] was tested, and the inhibition at 100 µM (photosystem II (PS II)) was 50 to 70%, the “Setaria viridis (efficacy in %)” value (Setaria viridis [14]) was 100% and the “Matricaria inodora (efficacy in %)” value (Matricaria inodora [15]) was 100%. The “Stellaria media (efficacy in %)” value (Stellaria media [16]) was 100%, the “Veronica persica (efficacy in %)” value (Veronica persica [17]) was 100% and the “Polygonum convolvulus (efficacy in %)” value (Polygonum convolvulus [18]) was 100%. The “Pharbitis purpurea (efficacy in %)” value (Pharbitis purpurea) was 100%, the “Abutilon theophrasti (efficacy in %)” value (Abutilon theophrasti [19]) was 100% and the “Amaranthus retroflexus (efficacy in %)” value (Amaranthus retroflexus [20]) was 100%. For the same compound, the “Digitaria sanguinalis (efficacy in %)” value (Digitaria sanguinalis) was 80%, the “Viola tricolor (efficacy in %)” value (Viola tricolor [21]) was 90% and the “Setaria viridis (efficacy in %)” value (Setaria viridis [22]) was 100%. For the same compound, the “Echinochloa crus-galli (efficacy in %)” value (Echinochloa crus-galli [23]) was 90%, the “Alopecurus myosuroides (efficacy in %)” value (Alopecurus myosuroides) was 90% and the “Matricaria inodora (efficacy in %)” value (Matricaria inodora [24]) was 100%. For the same compound, the “Stellaria media (efficacy in %)” value (Stellaria media [25]) was 100%, the “Veronica persica (efficacy in %)” value (Veronica persica [26]) was 100% and the “Polygonum convolvulus (efficacy in %)” value (Polygonum convolvulus [27]) was 90%. The “Abutilon theophrasti (efficacy in %)” value (Abutilon theophrasti [28]) was 100%, the “Amaranthus retroflexus (efficacy in %)” value (Amaranthus retroflexus [29]) was 100% and the “Hordeum murinum (efficacy in %)” value (Hordeum murinum) was 90%. For the same compound, the “Avena fatua (efficacy in %)” value (Avena fatua) was 90% and the “Viola tricolor (efficacy in %)” value (Viola tricolor [30]) was 100%.
